# Numbered stars: 1 amine (or outer) side, 2 acyl side, 3 side chain; on linkers, the order of the positions; unused ones are H or OH. Bridge positions count the residues as written; N and C are the ends. Square brackets hold non-standard residues; d marks the D form. Peptide text beside a SMILES is read from it. TATA = O=C(CC[*:1])N1CN(C(=O)CC[*:2])CN(C(=O)CC[*:3])C1; Pip = O=C(O)[C@@H]1CCCCN1; Nva = CCC[C@H](N)C(=O)O; Dap = NC[C@H](N)C(=O)O
# Molecular target: T1, Fc-tagged human NKp46 (Homo sapiens, UniProt O76036)
# T1 construct: purchased ACROBiosystems NC1-H5257
# Assay: NKp46 SPR assay (Method 1 and/or Method 2)
# Format: binding
# Conditions: SPR Method 1 and/or Method 2, Table 3B
# Procedure, shortened: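 Method 1: biotinylated Avi-tag NKp46-Fc on streptavidin chip, peptides to 100-5000 nM top in PBS/0.05% Tween 20, 0.5% DMSO; 1:1 kinetic fit with mass transport. Method 2: NKp46-Fc captured by anti-Fc, PBS-P+ 2% DMSO; steady-state or kinetic 1:1 fit. Both 25° C, 50 μl/min, 60 s association.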
# T1 sequence (O76036 22-304): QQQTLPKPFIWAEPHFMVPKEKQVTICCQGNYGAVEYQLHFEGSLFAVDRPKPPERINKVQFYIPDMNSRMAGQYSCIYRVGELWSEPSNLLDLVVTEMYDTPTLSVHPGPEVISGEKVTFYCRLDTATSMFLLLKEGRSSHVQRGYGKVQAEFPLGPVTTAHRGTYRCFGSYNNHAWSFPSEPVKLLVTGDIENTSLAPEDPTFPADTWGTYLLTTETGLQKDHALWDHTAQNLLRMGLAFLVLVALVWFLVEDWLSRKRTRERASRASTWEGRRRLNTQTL
row,Compound,Kd [nM]
1,"CSCC[C@@H]1NC(=O)[C@@H]2CSCCC(=O)N3CN(CN(C3)C(=O)CCSC[C@H](NC(=O)[C@@H](N)CCCCN)C(=O)N[C@@H](CC(N)=O)C(=O)N[C@@H](CC(C)C)C(=O)N[C@@H](CCC(N)=O)C(=O)N[C@@H](C)C(=O)N3CCC[C@H]3C(=O)N2)C(=O)CCSC[C@@H](C(=O)N[C@@H](C)C(N)=O)NC(=O)[C@H](C(C)C)NC(=O)[C@H](CCCCN)NC(=O)CNC(=O)[C@H]([C@@H](C)O)NC(=O)[C@H](CC(C)C)NC1=O [BCY19695, K-(SEQ ID NO: 4)-A] (H-KCNLQAPCMLTGKVCA-NH2; linker 2-8-15 via TATA; N-terminus assumed)",2380
2,"CSCC[C@@H]1NC(=O)[C@@H]2CSCCC(=O)N3CN(CN(C3)C(=O)CCSC[C@H](NC(=O)[C@@H](N)CN)C(=O)N[C@@H](CC(N)=O)C(=O)N[C@@H](CC(C)C)C(=O)N[C@@H](CCC(N)=O)C(=O)N[C@@H](C)C(=O)N3CCC[C@H]3C(=O)N2)C(=O)CCSC[C@@H](C(=O)N[C@@H](C)C(N)=O)NC(=O)[C@H](C(C)C)NC(=O)[C@H](CCCCN)NC(=O)CNC(=O)[C@H]([C@@H](C)O)NC(=O)[C@H](CC(C)C)NC1=O [BCY19697, Dap-(SEQ ID NO: 4)-A] (H-[Dap]CNLQAPCMLTGKVCA-NH2; linker 2-8-15 via TATA)",3730
3,"CSCC[C@@H]1NC(=O)[C@@H]2CSCCC(=O)N3CN(CN(C3)C(=O)CCSC[C@@H](C(=O)N[C@@H](C)C(N)=O)NC(=O)[C@H](C(C)C)NC(=O)[C@H](CCCCN)NC(=O)CNC(=O)[C@H]([C@@H](C)O)NC(=O)[C@H](CC(C)C)NC1=O)C(=O)CCSC[C@H](NC(=O)[C@H](C)N)C(=O)N[C@@H](CC(N)=O)C(=O)N[C@@H](CC(C)C)C(=O)N[C@@H](CCC(N)=O)C(=O)N[C@@H](C)C(=O)N1CCCC[C@H]1C(=O)N2 [BCY19701, A-(SEQ ID NO: 92)-A] (H-ACNLQA[Pip]CMLTGKVCA-NH2; linker 2-8-15 via TATA)",4030
4,"CSCC[C@@H]1NC(=O)[C@@H]2CSCCC(=O)N3CN(CN(C3)C(=O)CCSC[C@@H](C(=O)N[C@@H](C)C(N)=O)NC(=O)[C@H](C(C)C)NC(=O)[C@H](CCCCN)NC(=O)CNC(=O)[C@H]([C@@H](C)O)NC(=O)[C@H](C(C)C)NC1=O)C(=O)CCSC[C@H](NC(=O)[C@H](C)N)C(=O)N[C@@H](CC(N)=O)C(=O)N[C@@H](CC(C)C)C(=O)N[C@@H](CCC(N)=O)C(=O)N[C@@H](C)C(=O)N1CCC[C@H]1C(=O)N2 [BCY19702, A-(SEQ ID NO: 93)-A] (H-ACNLQAPCMVTGKVCA-NH2; linker 2-8-15 via TATA; N-terminus assumed)",2680
5,"CCC[C@@H]1NC(=O)[C@H](CCSC)NC(=O)[C@@H]2CSCCC(=O)N3CN(CN(C3)C(=O)CCSC[C@@H](C(=O)N[C@@H](C)C(N)=O)NC(=O)[C@H](C(C)C)NC(=O)[C@H](CCCCN)NC(=O)CNC(=O)[C@H]([C@@H](C)O)NC1=O)C(=O)CCSC[C@H](NC(=O)[C@H](C)N)C(=O)N[C@@H](CC(N)=O)C(=O)N[C@@H](CC(C)C)C(=O)N[C@@H](CCC(N)=O)C(=O)N[C@@H](C)C(=O)N1CCC[C@H]1C(=O)N2 [BCY19704, A-(SEQ ID NO: 95)-A] (H-ACNLQAPCM[Nva]TGKVCA-NH2; linker 2-8-15 via TATA; N-terminus assumed)",1620
6,"CC[C@H](C)[C@@H]1NC(=O)CNC(=O)[C@H](Cc2c[nH]c3cc(C)ccc23)NC(=O)[C@H](CCC(N)=O)NC(=O)[C@@H]2CSCCC(=O)N3CN(CN(C3)C(=O)CCSC[C@@H](C(=O)N[C@@H](C)C(N)=O)NC1=O)C(=O)CCSC[C@H](NC(=O)[C@H](C)N)C(=O)N[C@@H](CC(=O)O)C(=O)N[C@@H](CC(C)C)C(=O)N[C@@H]([C@@H](C)O)C(=O)N[C@@H]([C@@H](C)O)C(=O)N[C@@H](Cc1c[nH]cn1)C(=O)N[C@@H](CC(N)=O)C(=O)N2 [BCY19722, A-(SEQ ID NO: 160)-A]",1460

# Other lines, results leading:
row,Kd [nM],Compound
1,2750,"CSCC[C@@H]1NC(=O)[C@@H]2CSCCC(=O)N3CN(CN(C3)C(=O)CCSC[C@@H](C(=O)N[C@@H](C)C(N)=O)NC(=O)[C@H](C(C)C)NC(=O)[C@H](CCCCN)NC(=O)CNC(=O)[C@H]([C@@H](C)O)NC(=O)[C@H](Cc3c[nH]cn3)NC1=O)C(=O)CCSC[C@H](NC(=O)[C@H](C)N)C(=O)N[C@@H](CC(N)=O)C(=O)N[C@@H](CC(C)C)C(=O)N[C@@H](CCC(N)=O)C(=O)N[C@@H](C)C(=O)N1CCC[C@H]1C(=O)N2 [BCY19711, A-(SEQ ID NO: 100)-A] (H-ACNLQAPCMHTGKVCA-NH2; linker 2-8-15 via TATA; N-terminus assumed)"
2,3140,"CC(C)C[C@@H]1NC(=O)[C@H](CC(N)=O)NC(=O)[C@@H](NC(=O)[C@H](C)N)CSCCC(=O)N2CN3CN(C2)C(=O)CCSC[C@H](NC(=O)[C@@H]2CCCN2C(=O)[C@H](C)NC(=O)[C@H](CCC(N)=O)NC1=O)C(=O)N[C@@H](CC(C)C)C(=O)N[C@@H](Cc1c[nH]cn1)C(=O)N[C@@H]([C@@H](C)O)C(=O)NCC(=O)N[C@@H](CCCCN)C(=O)N[C@@H](C(C)C)C(=O)N[C@H](C(=O)N[C@@H](C)C(N)=O)CSCCC3=O [BCY19712, A-(SEQ ID NO: 101)-A] (H-ACNLQAPCLHTGKVCA-NH2; linker 2-8-15 via TATA; C-terminus assumed)"
3,1830,"CSCC[C@@H]1NC(=O)[C@@H]2CSCCC(=O)N3CN(CN(C3)C(=O)CCSC[C@@H](C(=O)N[C@@H](C)C(N)=O)NC(=O)[C@H](C(C)C)NC(=O)[C@H](CCCCN)NC(=O)CNC(=O)[C@H]([C@@H](C)O)NC(=O)[C@H](CCC(N)=O)NC1=O)C(=O)CCSC[C@H](NC(=O)[C@H](C)N)C(=O)N[C@@H](CC(N)=O)C(=O)N[C@@H](CC(C)C)C(=O)N[C@@H](CCC(N)=O)C(=O)N[C@@H](CCC(N)=O)C(=O)N[C@@H](C)C(=O)N2 [BCY19713, A-(SEQ ID NO: 102)-A] (H-ACNLQQACMQTGKVCA-NH2; linker 2-8-15 via TATA; N-terminus assumed)"
4,1110,"CC[C@H](C)[C@@H]1NC(=O)CNC(=O)[C@H](Cc2c[nH]c3ccccc23)NC(=O)[C@H](CCC(N)=O)NC(=O)[C@@H]2CSCCC(=O)N3CN(CN(C3)C(=O)CCSC[C@H](N)C(=O)N[C@@H](CC(=O)O)C(=O)N[C@@H](CC(C)C)C(=O)N[C@@H]([C@@H](C)O)C(=O)N[C@@H]([C@@H](C)O)C(=O)N[C@@H](Cc3c[nH]cn3)C(=O)N[C@@H](CC(N)=O)C(=O)N2)C(=O)CCSC[C@@H](C(=O)N[C@@H](C)C(N)=O)NC1=O [BCY19718, (SEQ ID NO: 11)-A] (H-CDLTTHNCQWGICA-NH2; linker 1-8-13 via TATA)"
5,2270,"CC[C@H](C)[C@@H]1NC(=O)CNC(=O)[C@H](Cc2c[nH]c3c(C)cccc23)NC(=O)[C@H](CCC(N)=O)NC(=O)[C@@H]2CSCCC(=O)N3CN(CN(C3)C(=O)CCSC[C@@H](C(=O)N[C@@H](C)C(N)=O)NC1=O)C(=O)CCSC[C@H](NC(=O)[C@H](C)N)C(=O)N[C@@H](CC(=O)O)C(=O)N[C@@H](CC(C)C)C(=O)N[C@@H]([C@@H](C)O)C(=O)N[C@@H]([C@@H](C)O)C(=O)N[C@@H](Cc1c[nH]cn1)C(=O)N[C@@H](CC(N)=O)C(=O)N2 [BCY19723, A-(SEQ ID NO: 161)-A]"

# Source: patent US20240108738A1, “BICYCLIC PEPTIDE LIGANDS SPECIFIC FOR NK CELLS” (Bicycle Tx Limited, priority 2021, published 2024)
